According to PMC6770006, “Novel Heat Shock Protein 90 Inhibitors Suppress P-Glycoprotein Activity and Overcome Multidrug Resistance in Cancer Cells” (International Journal of Molecular Sciences, 2019):

Columns and labels:
[1] = system: NCI-H460/R cells; assay: Combined treatment of compound 5 with DOX, MTT, median effect analysis; assay type: cell-based, human; conditions: for Relative Reversal: DOX resistance; for IC50: Homo sapiens, NCI-H460, 72 h
Experimental: (§1) The combined effects of compound 5 with DOX as well as with PTX were studied in NCI-H460/R and DLD1-TxR cells, respectively, by MTT assay. In simultaneous treatments that lasted 72 h in NCI-H460/R cells, three concentrations of compound 5 (2.5, 5, and 10 µM) were combined with increasing concentrations of DOX (250, 500 and 1000 nM), while in DLD1-TxR cells different concentrations of compound 5 (1, 2.5, and 5 µM) were combined with increasing concentrations of PTX (100, 250 and 500 nM). The nature of the interaction between Hsp90 inhibitors and DOX/PTX was analyzed with CalcuSyn software v1.1 (Biosoft, Cambridge, UK) that uses the Combination Index method based on the multiple drug effect equation [54]. Three data points were used for each single drug in each experiment. The non-constant ratio combination was chosen to assess the effect of both drugs in combination. The results are presented in a fraction-affected CI graph. Values of CI < 1 point to a pronounced additive effect or synergism (the smaller value, the greater the degree of synergy). A value of CI = 1 indicates an additive effect, while values of CI > 1 point to an antagonistic effect.

[2] = system: DLD1-TxR cells; assay: Combined treatment of compound 5 with PTX, MTT, median effect analysis; assay type: cell-based, human; conditions: PTX resistance
Experimental: as §1

- IC50 ([1]; DOX + 2.5 µM compound 5, 72 h): 1730 ± 30.9 nM
- IC50 ([1]; DOX + 5 µM compound 5, 72 h): 864 ± 25.6 nM
- IC50 ([1]; DOX + 10 µM compound 5, 72 h): 429 ± 13.3 nM
SMILES: O=C1c2ccccc2C(=O)c2c(-c3ccccc3O)noc21 [Compound 5]
- Relative Reversal ([1]; 2.5 µM compound 5): 1.31
- Relative Reversal ([1]; 5 µM compound 5): 2.62
- Relative Reversal ([1]; 10 µM compound 5): 5.28
- Relative Reversal ([2]; 1 µM compound 5): 1.80
- Relative Reversal ([2]; 2.5 µM compound 5): 2.60
- Relative Reversal ([2]; 5 µM compound 5): 5.27
